Experimental data from patent US20220323406A1, “METHODS AND COMPOSITIONS FOR DIFFERENTIATING STEM CELLS” (Massachusetts Institute of Technology, priority 2019, published 2022).
Counter-ions that a name gives are not always drawn.

How the values were obtained:
[1] = test system: ENR+CD organoids; assay: Primary screen: ATP (CellTiter-Glo 3D, CTG) cell number/viability, 2.5-D 384-well ENR+CD organoids; conditions: primary screen; for Z.CTG: standard z score;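 for all read-outs here: compounds given at plating and again on day 3 over a 6-day differentiation from ENR+CV stem-cell-enriched precursors, ATP measured on day 6, plate median as control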
[2] = test system: ENR+CD organoids (ISC to Paneth cell differentiation); assay: Secondary (validation) screen: LYZ.S CCh-stimulated lysozyme secretion, 2.5-D 384-well ENR+CD organoids; assay type: cell-based, mouse; conditions: 6-day ENR+CD, vs ENR+CD+DMSO
Procedure: (§1) Drugs were tested at a narrowed dose range around each treatment's identified optimal dose from the primary screen (4× below, 2× above and below).
(§2) High-throughput screening.
(§3) Secondary lysozyme secretion assay screen. Confirmatory secondary screening with primary hits was performed using the above 384-well plate method. The screen was conducted with 4-plate replicates with a base media of ENR+CD. Media was supplemented with compound at day 0 and day 3 (n=8 well replicates per dose) at four different doses: two-fold above, two-fold below, and four-fold below the optimal final dose for each respective treatment. Additionally, each plate carried a large number of ENR+DMSO or ENR+CD+DMSO (vehicle) control wells (n=100 for ATP, and n=25 for LYZ.NS and LYZ.S) for robust normalization. ATP, non-stimulated lysozyme activity and CCh-stimulated lysozyme activity was again measured and the collected data was again processed in a custom R-script, per primary screen with slight modification. Values were log10 transformed, and a plate-wise FC was calculated for each well based on the median value of ENR+CD+DMSO (vehicle) control wells to normalize plate to plate variability.

[3] = test system: ENR+CD organoids (ISC to Paneth cell differentiation); assay: Primary screen: basal (non-stimulated) lysozyme secretion LYZ.NS, 2.5-D 384-well ENR+CD organoid differentiation; assay type: cell-based, mouse
Excerpt: as §2

[4] = test system: ENR+CD organoids (ISC to Paneth cell differentiation); assay: Secondary (validation) screen: LYZ.NS basal lysozyme secretion, 2.5-D 384-well ENR+CD organoids; assay type: cell-based, mouse; conditions: 6-day ENR+CD, vs ENR+CD+DMSO
Procedure: as §1, §2, §3

[5] = test system: ENR+CD organoids (ISC to Paneth cell differentiation); assay: Primary screen: CCh-stimulated lysozyme secretion LYZ.S, 2.5-D 384-well ENR+CD organoid differentiation; assay type: cell-based, mouse; conditions: primary screen
Excerpt: as §2

[6] = test system: ENR+CD organoids; assay: Secondary (validation) screen: ATP (CTG) assay, 2.5-D 384-well ENR+CD organoids; assay type: cell-based, mouse; conditions: 6-day ENR+CD, vs ENR+CD+DMSO
Procedure: as §1, §2, §3

[7] = dose 0.08 uM, FC relative to plate median
[8] = dose 0.40 uM, FC relative to plate median
[9] = dose 2.00 uM, FC relative to plate median
[10] = dose 10.00 uM, FC relative to plate median

C[C@H](NCc1ccc(OCc2cccc(F)c2)cc1)C(N)=O [Safinamide Mesylate, reference compound]
Dose.FC.CTG [1, 7]: 0.265 log2 fold change | Dose.FC.CTG [1, 8]: 0.241 log2 fold change | Dose.FC.CTG [1, 9]: 0.263 log2 fold change | Dose.FC.CTG [1, 10]: 0.369 log2 fold change | Dose.FC.LYZ.S ([2]; 0.50 uM): −0.213 log2 fold change | Dose.FC.LYZ.S ([2]; 1.00 uM): −0.294 log2 fold change | Dose.FC.LYZ.S ([2]; 2.00 uM): −0.099 log2 fold change | Dose.FC.LYZ.S ([2]; 4.00 uM): −0.086 log2 fold change | primary screen hit call (SSMD and z-scored FC cutoffs in both LYZ assays) ([3]; LYZ.NS and LYZ.S; 0.08-10 uM, 6 days ENR+CD): sole hit in their respective pathway | Dose.FC.LYZ.NS ([3]; primary screen, dose 0.08 uM, FC relative to plate median): 0.160 log2 fold change | Z.LYZ.NS ([3]; primary screen, dose 0.08 uM, standard z score): 1.394 | Dose.FC.LYZ.NS ([3]; primary screen, dose 0.40 uM, FC relative to plate median): 0.093 log2 fold change | Z.LYZ.NS ([3]; primary screen, dose 0.40 uM, standard z score): 0.814 | Dose.FC.LYZ.NS ([3]; primary screen, dose 2.00 uM, FC relative to plate median): 0.174 log2 fold change | Z.LYZ.NS ([3]; primary screen, dose 2.00 uM, standard z score): 1.518 | Dose.FC.LYZ.NS ([3]; primary screen, dose 10.00 uM, FC relative to plate median): 0.057 log2 fold change | Z.LYZ.NS ([3]; primary screen, dose 10.00 uM, standard z score): 0.499 | Dose.FC.LYZ.NS ([4]; 0.50 uM): −0.156 log2 fold change | Dose.FC.LYZ.NS ([4]; 1.00 uM): −0.231 log2 fold change | Dose.FC.LYZ.NS ([4]; 2.00 uM): −0.046 log2 fold change | Dose.FC.LYZ.NS ([4]; 4.00 uM): −0.034 log2 fold change | Dose.FC.LYZ.S [5, 7]: 0.302 log2 fold change | Dose.FC.LYZ.S [5, 8]: 0.191 log2 fold change | Dose.FC.LYZ.S [5, 9]: 0.236 log2 fold change | Dose.FC.LYZ.S [5, 10]: 0.143 log2 fold change | Dose.FC.CTG ([6]; 0.50 uM): −0.014 log2 fold change | Dose.FC.CTG ([6]; 1.00 uM): −0.082 log2 fold change | Dose.FC.CTG ([6]; 2.00 uM): −0.011 log2 fold change | Dose.FC.CTG ([6]; 4.00 uM): −0.002 log2 fold change

NC1(Cc2ccc(Cl)cc2)CCN(c2ncnc3[nH]ccc23)CC1 [CCT128930]
Dose.FC.CTG ([1]; dose 0.08 uM): 0.095 log2 fold change | Dose.FC.CTG ([1]; dose 0.40 uM): −0.025 log2 fold change | Dose.FC.CTG ([1]; dose 2.00 uM): 0.127 log2 fold change | Dose.FC.CTG ([1]; dose 10.00 uM): −0.175 log2 fold change | Z.CTG ([1]; dose 0.08 uM): 0.228 | Z.CTG ([1]; dose 0.40 uM): −0.060 | Z.CTG ([1]; dose 2.00 uM): 0.304 | Z.CTG ([1]; dose 10.00 uM): −0.418 | Dose.FC.LYZ.S ([2]; 0.02 uM): −0.319 log2 fold change | Z.LYZ.S ([2]; 0.02 uM): −2.445 | repSSMD.LYZ.S ([2]; 0.02 uM): −3.825 | Dose.FC.LYZ.S ([2]; 0.04 uM): −0.014 log2 fold change | Z.LYZ.S ([2]; 0.04 uM): −0.108 | repSSMD.LYZ.S ([2]; 0.04 uM): −0.157 | Dose.FC.LYZ.S ([2]; 0.08 uM): 0.005 log2 fold change | Z.LYZ.S ([2]; 0.08 uM): 0.041 | repSSMD.LYZ.S ([2]; 0.08 uM): 0.069 | Dose.FC.LYZ.S ([2]; […]): −0.217 log2 fold change | Dose.FC.LYZ.NS ([3]; primary screen, dose 0.08 uM): 0.323 log2 fold change | Dose.FC.LYZ.NS ([3]; primary screen, dose 0.40 uM): −0.018 log2 fold change | Dose.FC.LYZ.NS ([3]; primary screen, dose 2.00 uM): 0.073 log2 fold change | Dose.FC.LYZ.NS ([3]; primary screen, dose 10.00 uM): −0.150 log2 fold change | Z.LYZ.NS ([3]; primary screen, standard z score, dose 0.08 uM): 2.811 | Z.LYZ.NS ([3]; primary screen, standard z score, dose 0.40 uM): −0.154 | Z.LYZ.NS ([3]; primary screen, standard z score, dose 2.00 uM): 0.633 | Z.LYZ.NS ([3]; primary screen, standard z score, dose 10.00 uM): −1.307 | Dose.FC.LYZ.NS ([4]; 0.02 uM): −0.241 log2 fold change | Z.LYZ.NS ([4]; 0.02 uM): −1.927 | repSSMD.LYZ.NS ([4]; 0.02 uM): −2.551 | Dose.FC.LYZ.NS ([4]; 0.04 uM): −0.020 log2 fold change | Z.LYZ.NS ([4]; 0.04 uM): −0.164 | repSSMD.LYZ.NS ([4]; 0.04 uM): −0.204 | Dose.FC.LYZ.NS ([4]; 0.08 uM): 0.031 log2 fold change | Z.LYZ.NS ([4]; 0.08 uM): 0.248 | repSSMD.LYZ.NS ([4]; 0.08 uM): 0.366 | Dose.FC.LYZ.NS ([4]; […]): −0.160 log2 fold change | Dose.FC.LYZ.S ([5]; dose 0.08 uM): 0.266 log2 fold change | Dose.FC.LYZ.S ([5]; dose 0.40 uM): −0.007 log2 fold change | Dose.FC.LYZ.S ([5]; dose 2.00 uM): 0.053 log2 fold change | Dose.FC.LYZ.S ([5]; dose 10.00 uM): −0.201 log2 fold change | Dose.FC.CTG ([6]; 0.02 uM): −0.117 log2 fold change | Z.CTG ([6]; 0.02 uM): −1.054 | repSSMD.CTG ([6]; 0.02 uM): −0.787 | Dose.FC.CTG ([6]; 0.04 uM): 0.122 log2 fold change | Z.CTG ([6]; 0.04 uM): 1.101 | repSSMD.CTG ([6]; 0.04 uM): 0.922 | Dose.FC.CTG ([6]; 0.08 uM): 0.166 log2 fold change | Z.CTG ([6]; 0.08 uM): 1.494 | repSSMD.CTG ([6]; 0.08 uM): 1.047 | Dose.FC.CTG ([6]; […]): −0.088 log2 fold change
